Results from ChEMBL document CHEMBL5030517, “6-Halopyridylmethylidene Penicillin-Based Sulfones Efficiently Inactivate the Natural Resistance of Pseudomonas aeruginosa to β-Lactam Antibiotics” (J Med Chem, 2021).
≈ marks a conversion by molar mass, not a printed value.

Key:
Format in all cases: functional
Pseudomonas aeruginosa [1] = test: Antipseudomonal activity against pseudomonas aeruginosa Pseudomonas aeruginosa PAHUAC-14 (ST-966) assessed as AmpC RNA level relative to Pseudomonas aeruginosa PAO1
Pseudomonas aeruginosa [2] = test: Antipseudomonal activity against pseudomonas aeruginosa Pseudomonas aeruginosa 53/22-113 (ST-244) assessed as AmpC RNA level relative to Pseudomonas aeruginosa PAO1
Pseudomonas aeruginosa [3] = test: Antibacterial activity against Pseudomonas aeruginosa PAO1 deltadacB by broth microdilution method
Pseudomonas aeruginosa [4] = test: Antipseudomonal activity against pseudomonas aeruginosa PAO deltadacBdeltapbpGdeltadacC assessed as AmpC RNA level relative to Pseudomonas aeruginosa PAO1
Pseudomonas aeruginosa [5] = test: Antibacterial activity against Pseudomonas aeruginosa PAO1 36/14-210 (ST-235) by broth microdilution method
Pseudomonas aeruginosa [6] = test: Antipseudomonal activity against pseudomonas aeruginosa PAO deltaDdeltsDh2deltaDh3 assessed as AmpC RNA level relative to Pseudomonas aeruginosa PAO1
Pseudomonas aeruginosa [7] = test: Antipseudomonal activity against pseudomonas aeruginosa Pseudomonas aeruginosa 17/14-017 (ST-235) assessed as AmpC RNA level relative to Pseudomonas aeruginosa PAO1
Pseudomonas aeruginosa [8] = test: Antipseudomonal activity against pseudomonas aeruginosa Pseudomonas aeruginosa 6/04-224 (ST-175) assessed as AmpC RNA level relative to Pseudomonas aeruginosa PAO1
Pseudomonas aeruginosa [9] = test: Antibacterial activity against Pseudomonas aeruginosa PAO1 deltadacBdeltaampD by broth microdilution method
Pseudomonas aeruginosa [10] = test: Antibacterial activity against Pseudomonas aeruginosa PAO1 by broth microdilution method
Pseudomonas aeruginosa [11] = test: Antibacterial activity against Pseudomonas aeruginosa PAO1 PAHUAC-27(ST-22) by broth microdilution method
Pseudomonas aeruginosa [12] = test: Antibacterial activity against Pseudomonas aeruginosa PAO1 17/14-017 (ST-235) by broth microdilution method
Pseudomonas aeruginosa [13] = test: Antipseudomonal activity against pseudomonas aeruginosa PAOdeltaC AmpC RNA level assessed as AmpC RNA level relative to Pseudomonas aeruginosa PAO1
Pseudomonas aeruginosa [14] = test: Antibacterial activity against Pseudomonas aeruginosa PAO1 23/14-053 (ST-309) by broth microdilution method
Pseudomonas aeruginosa [15] = test: Antibacterial activity against Pseudomonas aeruginosa PAO1 53/22-113 (ST-244) by broth microdilution method
Pseudomonas aeruginosa [16] = test: Antibacterial activity against Pseudomonas aeruginosa PAO1 deltaampD by broth microdilution method
Pseudomonas aeruginosa [17] = test: Antipseudomonal activity against pseudomonas aeruginosa Pseudomonas aeruginosa 36/14-210 (ST-235) assessed as AmpC RNA level relative to Pseudomonas aeruginosa PAO1
Pseudomonas aeruginosa [18] = test: Antipseudomonal activity against pseudomonas aeruginosa PAOdeltaampD AmpC RNA level assessed as AmpC RNA level relative to Pseudomonas aeruginosa PAO1
Pseudomonas aeruginosa [19] = test: Antipseudomonal activity against pseudomonas aeruginosa Pseudomonas aeruginosa 13/09-018 (ST-175) assessed as AmpC RNA level relative to Pseudomonas aeruginosa PAO1
Pseudomonas aeruginosa [20] = test: Antibacterial activity against Pseudomonas aeruginosa PAO1 13/09-018 (ST-175) by broth microdilution method
Pseudomonas aeruginosa [21] = test: Antibacterial activity against Pseudomonas aeruginosa PAO1 deltaC+pUCP-(PDC-5) by broth microdilution method
Pseudomonas aeruginosa [22] = test: Antibacterial activity against Pseudomonas aeruginosa PAO1 6/04-224 (ST-175) by broth microdilution method
Pseudomonas aeruginosa [23] = test: Antipseudomonal activity against pseudomonas aeruginosa PAOdeltaC+pUCP-(PDC-5) assessed as AmpC RNA level relative to Pseudomonas aeruginosa PAO1
Pseudomonas aeruginosa [24] = test: Antipseudomonal activity against pseudomonas aeruginosa PAO deltadacBdeltaampD assessed as AmpC RNA expression by RT-PCR analysis Pseudomonas aeruginosa PAO1
Pseudomonas aeruginosa [25] = test: Antipseudomonal activity against pseudomonas aeruginosa PAO deltadacBdeltadacC assessed as AmpC RNA expression by RT-PCR analysis relative to Pseudomonas aeruginosa PAO1
Pseudomonas aeruginosa [26] = test: Antibacterial activity against Pseudomonas aeruginosa PAO1 deltadacBdeltadacC by broth microdilution method
Pseudomonas aeruginosa [27] = test: Antipseudomonal activity against pseudomonas aeruginosa PAOdeltaC+pUCP-(PDC-1) assessed as AmpC RNA level relative to Pseudomonas aeruginosa PAO1
Pseudomonas aeruginosa [28] = test: Antipseudomonal activity against pseudomonas aeruginosa Pseudomonas aeruginosa PAHUAC-27(ST-22) assessed as AmpC RNA level relative to Pseudomonas aeruginosa PAO1
Pseudomonas aeruginosa [29] = test: Antipseudomonal activity against pseudomonas aeruginosa Pseudomonas aeruginosa 23/14-053 (ST-309) assessed as AmpC RNA level relative to Pseudomonas aeruginosa PAO1
Pseudomonas aeruginosa [30] = test: Antibacterial activity against PAOdeltaC by broth microdilution method
Pseudomonas aeruginosa [31] = test: Antipseudomonal activity against Pseudomonas aeruginosa PAO1 deltadacB assessed as AmpC RNA expression by RT-PCR analysis relative to Pseudomonas aeruginosa PAO1
Pseudomonas aeruginosa [32] = test: Antibacterial activity against Pseudomonas aeruginosa PAO1 deltadacBdeltapbpGdeltadacC by broth microdilution method
Pseudomonas aeruginosa [33] = test: Antibacterial activity against Pseudomonas aeruginosa PAO1 deltaDdeltsDh2deltaDh3 by broth microdilution method
Pseudomonas aeruginosa [34] = test: Antipseudomonal activity against pseudomonas aeruginosa PAO1 AmpC RNA level assessed as AmpC RNA level relative to Pseudomonas aeruginosa PAO1
Pseudomonas aeruginosa [35] = test: Antibacterial activity against Pseudomonas aeruginosa PAO1 PAHUAC-14 (ST-966) by broth microdilution method
Pseudomonas aeruginosa [36] = test: Antibacterial activity against Pseudomonas aeruginosa PAO1 deltaC+pUCP-(PDC-1) by broth microdilution method

CC(C)(O/N=C(\C(=O)N[C@@H]1C(=O)N2C(C(=O)[O-])=C(C[n+]3ccccc3)CS[C@H]12)c1csc(N)n1)C(=O)O [CEFTAZIDIME]
fold change (FC) (Pseudomonas aeruginosa [1]): 586.3 | fold change (FC) (Pseudomonas aeruginosa [2]): 1415.3 | MIC (Pseudomonas aeruginosa [3]): 16 µg/mL (≈ 29.3 µM) | fold change (FC) (Pseudomonas aeruginosa [4]): 1109.9 | MIC (Pseudomonas aeruginosa [5]): 128 µg/mL (≈ 234 µM) | fold change (FC) (Pseudomonas aeruginosa [6]): 1030.2 | fold change (FC) (Pseudomonas aeruginosa [7]): 32.8 | fold change (FC) (Pseudomonas aeruginosa [8]): 10.1 | MIC (Pseudomonas aeruginosa [9]): 32 µg/mL (≈ 58.5 µM) | MIC (Pseudomonas aeruginosa [10]): 1 µg/mL (≈ 1.83 µM) | MIC (Pseudomonas aeruginosa [11]): 32 µg/mL (≈ 58.5 µM) | MIC (Pseudomonas aeruginosa [12]): 16 µg/mL (≈ 29.3 µM) | fold change (FC) (Pseudomonas aeruginosa [13]): 0 | MIC (Pseudomonas aeruginosa [14]): 8 µg/mL (≈ 14.6 µM) | MIC (Pseudomonas aeruginosa [15]): 64 µg/mL (≈ 117 µM) | MIC (Pseudomonas aeruginosa [16]): 16 µg/mL (≈ 29.3 µM) | fold change (FC) (Pseudomonas aeruginosa [17]): 18.6 | fold change (FC) (Pseudomonas aeruginosa [18]): 51.4 | fold change (FC) (Pseudomonas aeruginosa [19]): 2.4 | MIC (Pseudomonas aeruginosa [20]): 8 µg/mL (≈ 14.6 µM) | MIC (Pseudomonas aeruginosa [21]): 16 µg/mL (≈ 29.3 µM) | MIC (Pseudomonas aeruginosa [22]): 32 µg/mL (≈ 58.5 µM) | fold change (FC) (Pseudomonas aeruginosa [23]): 4084.8 | fold change (FC) (Pseudomonas aeruginosa [24]): 1021.4 | fold change (FC) (Pseudomonas aeruginosa [25]): 472.3 | MIC (Pseudomonas aeruginosa [26]): 16 µg/mL (≈ 29.3 µM) | fold change (FC) (Pseudomonas aeruginosa [27]): 1933.4 | fold change (FC) (Pseudomonas aeruginosa [28]): 326.4 | fold change (FC) (Pseudomonas aeruginosa [29]): 6.4 | MIC (Pseudomonas aeruginosa [30]): 1 µg/mL (≈ 1.83 µM) | FC (Pseudomonas aeruginosa [31]): 36 µg/mL | MIC (Pseudomonas aeruginosa [32]): 16 µg/mL (≈ 29.3 µM) | MIC (Pseudomonas aeruginosa [33]): 32 µg/mL (≈ 58.5 µM) | fold change (FC) (Pseudomonas aeruginosa [34]): 1 | MIC (Pseudomonas aeruginosa [35]): 64 µg/mL (≈ 117 µM) | MIC (Pseudomonas aeruginosa [36]): 16 µg/mL (≈ 29.3 µM)
